Several values for one entry are separate records, joined by “and”; a condition that tells them apart may be missing. Identical values can stand only once.
Test system: MPNST multicellular tumor spheroids, viability % test/control
Assay: Anticancer human tumor MPNST cell line growth inhibition;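 also: spheroids exposed to agents for seven days after three days of growth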;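 as to viability, T/C: luminescence signal used as surrogate for viable cell amount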
Conditions: for IC50: curve of first compound; for viability, T/C: stronger effect = lower value
Source text: Multicellular complex tumor spheroid response to DNA repair inhibitors in combination with DNA-damaging drugs
This study explores the anticancer activities of DNA-damaging drugs and inhibitors of DNA damage repair, both as single agents and in combinations. Complex tumor spheroids comprised of malignant cells, endothelial cells and mesenchymal stem cells served as an in vitro model for human solid tumors. This model system incorporates physiologically relevant features and patient-derived or established malignant cell lines with clinically relevant genetic alterations from many tumor types. Twenty-six patient-derived or established malignant cell lines were evaluated representing sarcoma, melanoma, small cell lung cancer (SCLC), non-small cell lung cancer (NSCLC), as well as bladder, ovarian and pancreatic cancers. The concentration ranges selected for each drug and investigational agent were based upon clinically achievable concentrations if the clinical Cmax of the agent was known.
Compounds. The drugs and compounds olaparib (NSC753686), talazoparib (NSC767125), berzosertib (NSC777718), elimusertib (NSC800525), nedisertib (NSC802822), VX-984 (NSC792969), AZD-1390 (NSC803789), temozolomide (NSC362856), topotecan (NSC609699), trabectedin (NSC813783), staurosporine (NSC755774), and gemcitabine (NSC613327) were obtained from the National Cancer Institute (NCI) Developmental Therapeutics Program Chemical Repository. The FDA-approved anticancer drug set is available from the Developmental Therapeutics Program at https://dtp.cancer.gov/organization/dscb/obtaining/available_plates.htm. […] The stock solutions were prepared in dimethyl sulfoxide (DMSO, Sigma-Aldrich, St. Louis, MO, cat. D2650) at 400-fold the tested concentration and stored at -70 degrees C. Prior to their use, the stock solutions were diluted in fresh medium and the final DMSO concentration in the assay was 0.25% (v/v). All drugs and investigational agents were tested over a range starting from a high concentration at or near the clinical Cmax and decreasing in half-log increments. If the clinical Cmax for an agent had not been determined, the highest concentration tested was 10 microM.
Cell Lines. The patient-derived cancer cell (PDC) lines: 156681-154-R-J1-PDC, 283228-195-R-J1-PDC, 287954-098-R-J1-PDC, 292921-168-R-J2-PDC, 349418-098-R-PDC, 425362-245-T-J1-PDC, 556581-035-R-J1-PDC, and BL0293-F563-PDC were received from the NCI Patient-Derived Models Repository (PDMR, https://pdmr.cancer.gov). The established cell lines HS-SY-2 (RRID:CVCL_8719), MPNST, and SYO-1 (RRID:CVCL_7146) were obtained from the Sloan Kettering Institute. The alveolar soft parts sarcoma cell line ASPS-1 (RRID:CVCL_S738) was established at the NCI and grown from internal seed stocks. The following established cell lines were purchased from the American Type Culture Collection (ATCC, Manassas, VA): G-401 (ATCC, cat. CRL-1441, RRID:CVCL_0270), SW982 (ATCC, cat. HTB-93, RRID:CVCL_1734), VA-ES-BJ (ATCC, cat. CRL-2138, RRID:CVCL_1785), NCI-H719 (ATCC, cat. CRL-5837, RRID:CVCL_1582), NCI-H196 (ATCC, cat. CRL-5823, RRID:CVCL_1509), NCI-H841 (ATCC, cat. CRL-5845, RRID:CVCL_1595), NCI-H1618 (ATCC, cat. CRL-5879, RRID:CVCL_1480), NCI-H1876 (ATCC, cat. CRL-5902, RRID:CVCL_1503), DMS 114 (ATCC, cat. CRL-2066; RRID:CVCL_1174), NCI-H211 (ATCC, cat. CRL-5824; RRID:CVCL_1529), and SW 1271 (ATCC, cat. CRL-2177, RRID:CVCL_1716). The small cell lung cancer cell line COR-L88 was purchased from Sigma-Aldrich (cat. 92031917-1VL, RRID:CVCL_1141). The non-small cell lung cancer cell lines NCI-H226 (RRID:CVCL_1544) and NCI-H322M (RRID:CVCL_1557) were established at the NCI and grown from internal seed stocks. Pooled donor human umbilical vein endothelial cells (HUVEC, Lonza, cat. CC-2519) and human mesenchymal stem cells (hMSC, Lonza, cat. PT-2501) were purchased from Lonza (Walkersville, MD).
Cell Culture. All cells were maintained in an incubator at 37 degrees C and 5% CO2 with 95% humidity. […]

[1] = second compound 0.003 µM, first compound 0.00949 µM
[2] = second compound 0.003 µM, first compound 0.03 µM
[3] = second compound 0.003 µM, first compound 0.0949 µM
[4] = second compound 0.003 µM, first compound 0.3 µM
[5] = second compound 0.003 µM, first compound 0.949 µM
[6] = second compound 0.003 µM, first compound 3 µM
[7] = second compound 0.00949 µM, first compound 0.00949 µM
[8] = second compound 0.00949 µM, first compound 0.03 µM
[9] = second compound 0.00949 µM, first compound 0.0949 µM
[10] = second compound 0.00949 µM, first compound 0.3 µM
[11] = second compound 0.00949 µM, first compound 0.949 µM
[12] = second compound 0.00949 µM, first compound 3 µM
[13] = second compound 0.03 µM, first compound 0.00949 µM
[14] = second compound 0.03 µM, first compound 0.03 µM
[15] = second compound 0.03 µM, first compound 0.0949 µM
[16] = second compound 0.03 µM, first compound 0.3 µM
[17] = second compound 0.03 µM, first compound 0.949 µM
[18] = second compound 0.03 µM, first compound 3 µM
[19] = second compound 0.0949 µM, first compound 0.00949 µM
[20] = second compound 0.0949 µM, first compound 0.03 µM
[21] = second compound 0.0949 µM, first compound 0.0949 µM
[22] = second compound 0.0949 µM, first compound 0.3 µM
[23] = second compound 0.0949 µM, first compound 0.949 µM
[24] = second compound 0.0949 µM, first compound 3 µM
[25] = second compound 0.3 µM, first compound 0.00949 µM
[26] = second compound 0.3 µM, first compound 0.03 µM
[27] = second compound 0.3 µM, first compound 0.0949 µM
[28] = second compound 0.3 µM, first compound 0.3 µM
[29] = second compound 0.3 µM, first compound 0.949 µM
[30] = second compound 0.3 µM, first compound 3 µM

## Cn1ncnc1[C@H]1c2n[nH]c(=O)c3cc(F)cc(c23)N[C@@H]1c1ccc(F)cc1 + CC[C@@]1(O)C(=O)OCc2c1cc1n(c2=O)Cc2cc3c(CN(C)C)c(O)ccc3nc2-1
Second compound 0.003 µM
  IC50: > 3 µM
Second compound 0.00949 µM
  IC50: > 3 µM
Second compound 0.03 µM
  IC50: > 3 µM
Second compound 0.0949 µM
  IC50: > 3 µM
Second compound 0.3 µM
  IC50: < 0.00949 µM
[1]
  viability, T/C: 90.6%
[2]
  viability, T/C: 77.2%
[3]
  viability, T/C: 72.3%
[4]
  viability, T/C: 68.7%
[5]
  viability, T/C: 62.2%
[6]
  viability, T/C: 60.1%
[7]
  viability, T/C: 65%
[8]
  viability, T/C: 65.6%
[9]
  viability, T/C: 60.5%
[10]
  viability, T/C: 63.9%
[11]
  viability, T/C: 59.4%
[12]
  viability, T/C: 59.9%
[13]
  viability, T/C: 56.7%
[14]
  viability, T/C: 59%
[15]
  viability, T/C: 61.1%
[16]
  viability, T/C: 59.7%
[17]
  viability, T/C: 64%
[18]
  viability, T/C: 61.1%
[19]
  viability, T/C: 59.7%
[20]
  viability, T/C: 55.8%
[21]
  viability, T/C: 58.8%
[22]
  viability, T/C: 61.6%
[23]
  viability, T/C: 59.1%
[24]
  viability, T/C: 55.6%
[25]
  viability, T/C: 49.5%
[26]
  viability, T/C: 48.5%
[27]
  viability, T/C: 49.2%
[28]
  viability, T/C: 52.7%
[29]
  viability, T/C: 53%
[30]
  viability, T/C: 46.3%

## O=C(c1cc(Cc2n[nH]c(=O)c3ccccc23)ccc1F)N1CCN(C(=O)C2CC2)CC1
Compound 0.0949 µM
  viability, T/C: 88.3% and 108% and 83.2%
Compound 0.3 µM
  viability, T/C: 75.1% and 84.1% and 60.3%
Compound 0.949 µM
  viability, T/C: 79.3% and 91.9% and 51.5%
Compound 3 µM
  viability, T/C: 95.2% and 96.5% and 51.2%
Compound 9.49 µM
  viability, T/C: 68.4% and 72.2% and 27.7%
Compound 30 µM
  viability, T/C: 49.3% and 56.8% and 28%

## Cn1ncnc1[C@H]1c2n[nH]c(=O)c3cc(F)cc(c23)N[C@@H]1c1ccc(F)cc1 + COc1cc2c(cc1O)CCNC21CSC2c3c(OC(C)=O)c(C)c4c(c3C(COC1=O)N1C(O)C3Cc5cc(C)c(OC)c(O)c5C(C21)N3C)OCO4
Second compound 30 pM
  IC50: 1.52 µM
Second compound 94.9 pM
  IC50: 0.259 µM
Second compound 0.0003 µM
  IC50: 0.0689 µM
Second compound 0.000949 µM
  IC50: < 0.00949 µM
Second compound 0.003 µM
  IC50: < 0.00949 µM
Second compound 30 pM, first compound 0.00949 µM
  viability, T/C: 64.4%
Second compound 30 pM, first compound 0.03 µM
  viability, T/C: 75.2%
Second compound 30 pM, first compound 0.0949 µM
  viability, T/C: 58.3%
Second compound 30 pM, first compound 0.3 µM
  viability, T/C: 59.1%
Second compound 30 pM, first compound 0.949 µM
  viability, T/C: 52.7%
Second compound 30 pM, first compound 3 µM
  viability, T/C: 46%
Second compound 94.9 pM, first compound 0.00949 µM
  viability, T/C: 68.9%
Second compound 94.9 pM, first compound 0.03 µM
  viability, T/C: 86.8%
Second compound 94.9 pM, first compound 0.0949 µM
  viability, T/C: 67%
Second compound 94.9 pM, first compound 0.3 µM
  viability, T/C: 49.9%
Second compound 94.9 pM, first compound 0.949 µM
  viability, T/C: 45.3%
Second compound 94.9 pM, first compound 3 µM
  viability, T/C: 46%
Second compound 0.0003 µM, first compound 0.00949 µM
  viability, T/C: 53.1%
Second compound 0.0003 µM, first compound 0.03 µM
  viability, T/C: 53.6%
Second compound 0.0003 µM, first compound 0.0949 µM
  viability, T/C: 47%
Second compound 0.0003 µM, first compound 0.3 µM
  viability, T/C: 49%
Second compound 0.0003 µM, first compound 0.949 µM
  viability, T/C: 43%
Second compound 0.0003 µM, first compound 3 µM
  viability, T/C: 41.9%
Second compound 0.000949 µM, first compound 0.00949 µM
  viability, T/C: 51.6%
Second compound 0.000949 µM, first compound 0.03 µM
  viability, T/C: 41.6%
Second compound 0.000949 µM, first compound 0.0949 µM
  viability, T/C: 40.9%
Second compound 0.000949 µM, first compound 0.3 µM
  viability, T/C: 44.4%
Second compound 0.000949 µM, first compound 0.949 µM
  viability, T/C: 38%
Second compound 0.000949 µM, first compound 3 µM
  viability, T/C: 29.9%
[1]
  viability, T/C: 13.7%
[2]
  viability, T/C: 15.3%
[3]
  viability, T/C: 9.43%
[4]
  viability, T/C: 9.63%
[5]
  viability, T/C: 6.89%
[6]
  viability, T/C: 2.68%

## Cc1sc2c(c1C)C(c1ccc(Cl)cc1)=NC(CC(=O)Nc1ccc(O)cc1)c1nnc(C)n1-2 (stereo unspecified) + CC[C@@]1(O)C(=O)OCc2c1cc1n(c2=O)Cc2cc3c(CN(C)C)c(O)ccc3nc2-1
Second compound 0.003 µM
  IC50: 1.86 µM
Second compound 0.00949 µM
  IC50: > 3 µM
Second compound 0.03 µM
  IC50: 2.5 µM
Second compound 0.0949 µM
  IC50: 1.21 µM
Second compound 0.3 µM
  IC50: 0.0106 µM
[1]
  viability, T/C: 113%
[2]
  viability, T/C: 98.3%
[3]
  viability, T/C: 85.1%
[4]
  viability, T/C: 66.9%
[5]
  viability, T/C: 51.9%
[6]
  viability, T/C: 48.4%
[7]
  viability, T/C: 82%
[8]
  viability, T/C: 85.7%
[9]
  viability, T/C: 81.8%
[10]
  viability, T/C: 62.4%
[11]
  viability, T/C: 54.5%
[12]
  viability, T/C: 50.5%
[13]
  viability, T/C: 66.8%
[14]
  viability, T/C: 64.1%
[15]
  viability, T/C: 62%
[16]
  viability, T/C: 58.1%
[17]
  viability, T/C: 51.9%
[18]
  viability, T/C: 49.4%
[19]
  viability, T/C: 58.4%
[20]
  viability, T/C: 60.1%
[21]
  viability, T/C: 60.4%
[22]
  viability, T/C: 56.3%
[23]
  viability, T/C: 48.8%
[24]
  viability, T/C: 45.4%
[25]
  viability, T/C: 50.6%
[26]
  viability, T/C: 47.8%
[27]
  viability, T/C: 47.2%
[28]
  viability, T/C: 44.9%
[29]
  viability, T/C: 37.9%
[30]
  viability, T/C: 33.1%

— PubChem BioAssay AID1845205 (Molecular Pharmacology Branch, DTP, NCI, 2023)
